From PubChem BioAssay AID330 (DTP/NCI, 2004)
Values joined by “and” are separate entries in the source; they are usually repeats but may differ in a detail not shown here. Equal entries are not always repeated. Toxic doses and inconclusive results are not listed. The calls were made as follows: active = survival T/C of 150% or more; inactive = T/C below 125% in these data.

Tested on: P388 leukemia ip, CD2F1 mice, survival T/C
Test: NCI In Vivo Anticancer Drug Screen. Data for tumor model P388 Leukemia (intraperitoneal) in CD2F1 (CDF1) mice
Details: endpoint: median survival time, higher = longer survival
Summary of the method: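 Mice carrying the transplanted tumor received test compound or vehicle. Survival was recorded in each group, and the value is the treated-group measurement divided by that of the vehicle-treated control group.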

[1] = dose: 100.0 mg/kg/injection, schedule: Q01DX009 (ip), vehicle: other
[2] = dose: 60.0 mg/kg/injection, schedule: Q01DX005 (ip), vehicle: saline with Tween-80
[3] = dose: 120.0 mg/kg/injection, schedule: Q01DX005 (ip), vehicle: saline with Tween-80
[4] = dose: 240.0 mg/kg/injection, schedule: Q01DX005 (ip), vehicle: saline with Tween-80
[5] = dose: 50.0 mg/kg/injection, schedule: Q01DX009 (ip), vehicle: saline with Tween-80
[6] = dose: 100.0 mg/kg/injection, schedule: Q01DX009 (ip), vehicle: saline with Tween-80
[7] = dose: 200.0 mg/kg/injection, schedule: Q01DX009 (ip), vehicle: saline with Tween-80
[8] = dose: 50.0 mg/kg/injection, schedule: Q01DX009 (ip), vehicle: Klucel (hydroxypropylcellulose) (HPC)
[9] = dose: 100.0 mg/kg/injection, schedule: Q04DX003 (ip), vehicle: saline with Tween-80
[10] = dose: 200.0 mg/kg/injection, schedule: Q04DX003 (ip), vehicle: saline with Tween-80
[11] = dose: 50.0 mg/kg/injection, schedule: Q01DX005 (ip), vehicle: saline with Tween-80
[12] = dose: 100.0 mg/kg/injection, schedule: Q01DX005 (ip), vehicle: saline with Tween-80
[13] = dose: 200.0 mg/kg/injection, schedule: Q01DX005 (ip), vehicle: saline with Tween-80
[14] = dose: 25.0 mg/kg/injection, schedule: Q01DX009 (ip), vehicle: saline with Tween-80

Measured: T/C

CCOc1nc(C)c(C)c(-c2ccc(OC)c(OC)c2OCc2ccccc2)c1C#N
inactive: dose: 0.05 mg/kg/injection, schedule: Q01DX009 (ip), vehicle: other 117 % of control | dose: 0.1 mg/kg/injection, schedule: Q01DX009 (ip), vehicle: other 96 % of control | dose: 0.2 mg/kg/injection, schedule: Q01DX009 (ip), vehicle: other 101 % of control | dose: 0.4 mg/kg/injection, schedule: Q01DX009 (ip), vehicle: other 100 % of control and 107 % of control | dose: 0.8 mg/kg/injection, schedule: Q01DX009 (ip), vehicle: other 110 % of control | dose: 1.6 mg/kg/injection, schedule: Q01DX009 (ip), vehicle: other 117 % of control | dose: 3.2 mg/kg/injection, schedule: Q01DX009 (ip), vehicle: other 115 % of control | dose: 6.4 mg/kg/injection, schedule: Q01DX009 (ip), vehicle: DMSO 103 % of control | dose: 6.4 mg/kg/injection, schedule: Q01DX009 (ip), vehicle: other 110 % of control | dose: 12.8 mg/kg/injection, schedule: Q01DX009 (ip), vehicle: DMSO 94 % of control | dose: 25.6 mg/kg/injection, schedule: Q01DX009 (ip), vehicle: DMSO 94 % of control | dose: 51.2 mg/kg/injection, schedule: Q01DX009 (ip), vehicle: DMSO 97 % of control | [1] 104 % of control | dose: 102.0 mg/kg/injection, schedule: Q01DX009 (ip), vehicle: DMSO 94 % of control | dose: 200.0 mg/kg/injection, schedule: Q01DX009 (ip), vehicle: other 115 % of control | dose: 400.0 mg/kg/injection, schedule: Q01DX009 (ip), vehicle: other 100 % of control

CC(C)(C)C1=CC(=CC=C2C=CN(CCCCCCCCCCCO)C=C2)C=C(C(C)(C)C)C1=O
inactive: [2] 108 % of control | [3] 107 % of control | [4] 110 % of control

CCOC(=O)CC(=O)Nc1sc(CC)cc1C(=O)OCC
inactive: [2] 100 % of control | [3] 94 % of control

O=c1[nH][nH]c2c1SCc1ccccc1-2
inactive: [5] 110 % of control | [6] 117 % of control | [7] 86 % of control

CC(Br)(C(Br)c1ccccc1)[N+](=O)[O-] (configuration not stated)
inactive: dose: 25.0 mg/kg/injection, schedule: Q01DX009 (ip), vehicle: Klucel (hydroxypropylcellulose) (HPC) 110 % of control | [8] 108 % of control

CNc1nc(-c2ccc(OC)cc2)c(-c2ccc(OC)cc2)[nH]1
inactive: dose: 25.0 mg/kg/injection, schedule: Q04DX002 (ip), vehicle: saline with Tween-80 108 % of control and 111 % of control | dose: 50.0 mg/kg/injection, schedule: Q04DX002 (ip), vehicle: saline with Tween-80 107 % of control | dose: 100.0 mg/kg/injection, schedule: Q04DX002 (ip), vehicle: saline with Tween-80 99 % of control

c1ccc2c(c1)[nH]c1cc3ccncc3cc12
inactive: dose: 50.0 mg/kg/injection, schedule: Q04DX003 (ip), vehicle: saline with Tween-80 94 % of control | [9] 91 % of control | [10] 87 % of control

ClCCN(CCN(CCCl)c1ccc2ccccc2c1)c1ccc2ccccc2c1
inactive: [8] 109 % of control | dose: 100.0 mg/kg/injection, schedule: Q01DX009 (ip), vehicle: Klucel (hydroxypropylcellulose) (HPC) 112 % of control | dose: 200.0 mg/kg/injection, schedule: Q01DX009 (ip), vehicle: Klucel (hydroxypropylcellulose) (HPC) 107 % of control

O=C(O)CCc1nc(-c2ccccc2)ncc1C(=O)O
inactive: [9] 100 % of control | [10] 100 % of control | dose: 400.0 mg/kg/injection, schedule: Q04DX003 (ip), vehicle: saline with Tween-80 98 % of control

Cc1[nH]c2c(ccc3c2ccc2c(=O)c(Cl)c(C)[nH]c23)c(=O)c1Cl
inactive: [11] 96 % of control | [12] 95 % of control | [13] 94 % of control

CC(O)C(NC(=O)OC(C)(C)C)C(=O)O (configuration not stated)
inactive: dose: 50.0 mg/kg/injection, schedule: Q01DX005 (ip), vehicle: saline 103 % of control | dose: 100.0 mg/kg/injection, schedule: Q01DX005 (ip), vehicle: saline 104 % of control | dose: 200.0 mg/kg/injection, schedule: Q01DX005 (ip), vehicle: saline 102 % of control

Cc1cccn2ccnc12
inactive: dose: 25.0 mg/kg/injection, schedule: Q01DX009 (ip), vehicle: saline 100 % of control and 93 % of control | dose: 50.0 mg/kg/injection, schedule: Q01DX009 (ip), vehicle: saline 100 % of control and 96 % of control | dose: 100.0 mg/kg/injection, schedule: Q01DX009 (ip), vehicle: saline 120 % of control and 94 % of control

O=C(O)C(CSC(c1ccccc1)(c1ccccc1)c1ccccc1)NC(c1ccccc1)(c1ccccc1)c1ccccc1 (configuration not stated)
inactive: dose: 12.5 mg/kg/injection, schedule: Q01DX009 (ip), vehicle: other 93 % of control | dose: 25.0 mg/kg/injection, schedule: Q01DX009 (ip), vehicle: other 94 % of control | dose: 50.0 mg/kg/injection, schedule: Q01DX009 (ip), vehicle: other 93 % of control | [1] 98 % of control

C(=C\c1ccnc2c1ccc1ccccc12)/c1ccccc1
inactive: dose: 12.5 mg/kg/injection, schedule: Q01DX005 (ip), vehicle: saline with Tween-80 96 % of control | dose: 25.0 mg/kg/injection, schedule: Q01DX005 (ip), vehicle: saline with Tween-80 96 % of control | [11] 90 % of control | [12] 88 % of control | [13] 88 % of control

O=C(O)CCC(=O)c1ccc2ccc3cccc4ccc1c2c34
inactive: dose: 50.0 mg/kg/injection, schedule: Q01DX005 (ip), vehicle: Klucel (hydroxypropylcellulose) (HPC) 102 % of control | [5] 101 % of control | dose: 100.0 mg/kg/injection, schedule: Q01DX005 (ip), vehicle: Klucel (hydroxypropylcellulose) (HPC) 103 % of control | [6] 115 % of control | dose: 200.0 mg/kg/injection, schedule: Q01DX005 (ip), vehicle: Klucel (hydroxypropylcellulose) (HPC) 99 % of control

O=c1c2ccccc2[nH]c2cc3c(=O)n4ccccc4nc3cc12
inactive: dose: 30.0 mg/kg/injection, schedule: Q01DX005 (ip), vehicle: saline with Tween-80 94 % of control | [2] 101 % of control and 91 % of control | [3] 93 % of control | [4] 93 % of control

COc1ccc(C[n+]2cc([O-])on2)cc1
inactive: dose: 6.25 mg/kg/injection, schedule: Q01DX009 (ip), vehicle: saline with Tween-80 100 % of control | dose: 12.5 mg/kg/injection, schedule: Q01DX009 (ip), vehicle: saline with Tween-80 100 % of control | [14] 100 % of control and 104 % of control and 95 % of control | [5] 122 % of control | dose: 66.0 mg/kg/injection, schedule: Q01DX009 (ip), vehicle: saline with Tween-80 118 % of control and 122 % of control

O=C(Nc1ccccc1Cl)Oc1ccc(-c2ccccc2)cc1Br
inactive: [14] 111 % of control | [5] 121 % of control | [7] 104 % of control and 95 % of control

COC1(OC)OC2=C(OC1(OC)OC)c1ccccc1C2=O
inactive: dose: 7.5 mg/kg/injection, schedule: Q01DX005 (ip), vehicle: Klucel (hydroxypropylcellulose) (HPC) 114 % of control | dose: 15.0 mg/kg/injection, schedule: Q01DX005 (ip), vehicle: Klucel (hydroxypropylcellulose) (HPC) 114 % of control and 122 % of control | dose: 30.0 mg/kg/injection, schedule: Q01DX005 (ip), vehicle: Klucel (hydroxypropylcellulose) (HPC) 114 % of control and 115 % of control | dose: 60.0 mg/kg/injection, schedule: Q01DX005 (ip), vehicle: Klucel (hydroxypropylcellulose) (HPC) 111 % of control and 115 % of control (2×)
